# Test results from publication PMC11769294, “(E)-1-(3-(3-Hydroxy-4-Methoxyphenyl)-1-(3,4,5-Trimethoxyphenyl)allyl)-1H-1,2,4-Triazole and Related Compounds: Their Synthesis and Biological Evaluation as Novel Antimitotic Agents Targeting Breast Cancer” (Pharmaceuticals, 2025).
# Where two headings read alike, the source gives them in different places.
# Legend:
# Type in all cases: cell-based, human
# KM12 (Colon Cancer) = experiment: NCI60 screen (SRB); conditions: 48 h
# HCT-15 (Colon Cancer) = experiment: NCI60 screen (SRB); conditions: 48 h
# T-47D (Breast Cancer) = experiment: NCI60 screen (SRB); conditions: 48 h
# [1] = system: MDA-MB-468 (Breast Cancer); experiment: NCI60 screen (SRB); conditions: 48 h
# CAKI-1 (Renal Cancer) = experiment: NCI60 screen (SRB); conditions: 48 h
# [2] = system: NCI-H522 (Non-Small Cell Lung Cancer); experiment: NCI60 screen (SRB); conditions: for GI50: five-dose
# SF-268 (CNS Cancer) = experiment: NCI60 screen (SRB); conditions: 48 h
# MALME-3M (Melanoma) = experiment: NCI60 screen (SRB); conditions: 48 h
# COLO 205 (Colon Cancer) = experiment: NCI60 screen (SRB); conditions: 48 h
# 786-0 (Renal Cancer) = experiment: NCI60 screen (SRB); conditions: 48 h
# A498 (Renal Cancer) = experiment: NCI60 screen (SRB); conditions: 48 h
# [3] = system: EKVX (Non-Small Cell Lung Cancer); experiment: NCI60 screen (SRB); conditions: 48 h
# OVCAR-3 (Ovarian Cancer) = experiment: NCI60 screen (SRB); conditions: 48 h
# U251 (CNS Cancer) = experiment: NCI60 screen (SRB); conditions: 48 h
# M14 (Melanoma) = experiment: NCI60 screen (SRB); conditions: 48 h
# [4] = system: HOP-62 (Non-Small Cell Lung Cancer); experiment: NCI60 screen (SRB); conditions: 48 h
# UO-31 (Renal Cancer) = experiment: NCI60 screen (SRB); conditions: 48 h
# SNB-19 (CNS Cancer) = experiment: NCI60 screen (SRB); conditions: 48 h
# OVCAR-4 (Ovarian Cancer) = experiment: NCI60 screen (SRB); conditions: 48 h
# [5] = system: NCI 60 cancer cell line panel; experiment: NCI60 screen (SRB), all cell lines
# ACHN (Renal Cancer) = experiment: NCI60 screen (SRB); conditions: 48 h
# SR (Leukemia) = experiment: NCI60 screen (SRB); conditions: 48 h
# OVCAR-8 (Ovarian Cancer) = experiment: NCI60 screen (SRB); conditions: 48 h
# SF-295 (CNS Cancer) = experiment: NCI60 screen (SRB); conditions: 48 h
# OVCAR-5 (Ovarian Cancer) = experiment: NCI60 screen (SRB); conditions: 48 h
# RXF 393 (Renal Cancer) = experiment: NCI60 screen (SRB); conditions: 48 h
# [6] = system: HOP-92 (Non-Small Cell Lung Cancer); experiment: NCI60 screen (SRB); conditions: 48 h
# SF-539 (CNS Cancer) = experiment: NCI60 screen (SRB); conditions: 48 h
# [7] = system: NCI-H460 (Non-Small Cell Lung Cancer); experiment: NCI60 screen (SRB); conditions: for GI50: five-dose
# MOLT-4 (Leukemia) = experiment: NCI60 screen (SRB); conditions: one dose 10 µM, 48 h
# SNB-75 (CNS Cancer) = experiment: NCI60 screen (SRB); conditions: 48 h
# PC-3 (Prostate Cancer) = experiment: NCI60 screen (SRB); conditions: 48 h
# HT29 (Colon Cancer) = experiment: NCI60 screen (SRB); conditions: 48 h
# [8] = system: NCI/ADR-RES (Ovarian Cancer); experiment: NCI60 screen (SRB); conditions: 48 h
# IGROV1 (Ovarian Cancer) = experiment: NCI60 screen (SRB); conditions: 48 h
# SK-MEL-28 (Melanoma) = experiment: NCI60 screen (SRB); conditions: 48 h
# LOX IMVI (Melanoma) = experiment: NCI60 screen (SRB); conditions: 48 h
# BT-549 (Breast Cancer) = experiment: NCI60 screen (SRB); conditions: for GI50: five-dose
# SK-OV-3 (Ovarian Cancer) = experiment: NCI60 screen (SRB); conditions: 48 h
# HL-60 (TB) (Leukemia) = experiment: NCI60 screen (SRB); conditions: for GI50: HL-60(TB), five-dose
# HCC-2998 (Colon Cancer) = experiment: NCI60 screen (SRB); conditions: 48 h
# [9] = Homo sapiens, five-dose, read-out: IC50 (cell marked * in GI50 column)
# [10] = Homo sapiens, five-dose, read-out: IC50 (cell marked * in GI50 column) (converted)
smiles,measurement,setting,value
"COc1ccc(/C=C/C(c2cc(OC)c(OC)c(OC)c2)n2cncn2)cc1O (stereo not drawn) [Compound 22b, (E)-5-(3-(1H-1,2,4-Triazol-1-yl)-3-(3,4,5-trimethoxyphenyl)prop-1-en-1-yl)-2-methoxyphenol]",GI50,"KM12 (Colon Cancer); Homo sapiens, five-dose",40.5 nM
same,growth percent,KM12 (Colon Cancer); one dose 10 µM,26.67%
same,GI50,"HCT-15 (Colon Cancer); Homo sapiens, five-dose",50.8 nM
same,growth percent,HCT-15 (Colon Cancer); one dose 10 µM,16.53%
same,GI50,"T-47D (Breast Cancer); Homo sapiens, T47D, five-dose",> 100000 nM
same,growth percent,T-47D (Breast Cancer); one dose 10 µM,34.38%
same,IC50,[1]; [9],> 100000 nM
same,growth percent,[1]; one dose 10 µM,8.27%
same,GI50,"CAKI-1 (Renal Cancer); Homo sapiens, five-dose",2830 nM
same,growth percent,CAKI-1 (Renal Cancer); one dose 10 µM,34.50%
same,GI50,"[2]; Homo sapiens, NCI-H522, 48 h",22 nM
same,GI50,[2]; 48 h,22.3 nM
same,growth percent,"[2]; one dose 10 µM, 48 h",13.04%
same,GI50,"SF-268 (CNS Cancer); Homo sapiens, five-dose",58.9 nM
same,growth percent,SF-268 (CNS Cancer); one dose 10 µM,54.09%
same,IC50,MALME-3M (Melanoma); [9],> 100000 nM
same,growth percent,MALME-3M (Melanoma); one dose 10 µM,54.35%
same,GI50,"COLO 205 (Colon Cancer); Homo sapiens, five-dose",3660 nM
same,growth percent,COLO 205 (Colon Cancer); one dose 10 µM,60.64%
same,IC50,786-0 (Renal Cancer); [10],8910 nM
same,growth percent,786-0 (Renal Cancer); one dose 10 µM,23.33%
same,GI50,"A498 (Renal Cancer); Homo sapiens, five-dose",3130 nM
same,growth percent,A498 (Renal Cancer); one dose 10 µM,19.81%
same,GI50,"[3]; Homo sapiens, five-dose",6070 nM
same,growth percent,[3]; one dose 10 µM,59.45%
same,GI50,"OVCAR-3 (Ovarian Cancer); Homo sapiens, five-dose",26 nM
same,growth percent,OVCAR-3 (Ovarian Cancer); one dose 10 µM,15.65%
same,GI50,"U251 (CNS Cancer); Homo sapiens, U-251, five-dose",50.6 nM
same,growth percent,U251 (CNS Cancer); one dose 10 µM,20.72%
same,GI50,"M14 (Melanoma); Homo sapiens, five-dose",28.7 nM
same,growth percent,M14 (Melanoma); one dose 10 µM,−12.29%
same,IC50,[4]; [10],30200 nM
same,growth percent,[4]; one dose 10 µM,22.52%
same,IC50,UO-31 (Renal Cancer); [9],> 100000 nM
same,growth percent,UO-31 (Renal Cancer); one dose 10 µM,54.20%
same,IC50,SNB-19 (CNS Cancer); [10],25700 nM
same,growth percent,SNB-19 (CNS Cancer); one dose 10 µM,34.19%
same,GI50,"OVCAR-4 (Ovarian Cancer); Homo sapiens, five-dose",7050 nM
same,growth percent,OVCAR-4 (Ovarian Cancer); one dose 10 µM,83.51%
same,GI50,"[5]; Homo sapiens, 48 h, five-dose, 48 h, read-out: MG-MID (mean of GI50 values over all cell lines)",371 nM
same,GI50,"[5]; Homo sapiens, Figure 8, concentration in molar, read-out: Log 10 GI-50 Mean (converted)",2140 nM
same,IC50,"[5]; Homo sapiens, Figure 8, concentration in molar, read-out: Log 10 IC-50 Mean (converted)",2880 nM
same,LC50 (50% lethal concentration),"[5]; Homo sapiens, over all 60 cell lines, five-dose",> 100000 nM
same,GI50,"[5]; five-dose, 48 h, read-out: MG-MID (mean of GI50 values over all cell lines)",372 nM
same,TGI (total growth inhibition),"[5]; over all 60 cell lines, five-dose",57500 nM
same,mean growth percent,"[5]; over the 60-cell line panel, one dose 10 µM, 48 h",29.9%
same,GI50,"ACHN (Renal Cancer); Homo sapiens, five-dose",57.9 nM
same,growth percent,ACHN (Renal Cancer); one dose 10 µM,63.11%
same,GI50,"SR (Leukemia); Homo sapiens, five-dose",24.8 nM
same,growth percent,SR (Leukemia); one dose 10 µM,5.67%
same,IC50,OVCAR-8 (Ovarian Cancer); [10],3630 nM
same,growth percent,OVCAR-8 (Ovarian Cancer); one dose 10 µM,15.99%
same,IC50,SF-295 (CNS Cancer); [10],3720 nM
same,growth percent,SF-295 (CNS Cancer); one dose 10 µM,1.43%
same,GI50,"OVCAR-5 (Ovarian Cancer); Homo sapiens, five-dose",4480 nM
same,growth percent,OVCAR-5 (Ovarian Cancer); one dose 10 µM,86.55%
same,IC50,RXF 393 (Renal Cancer); [9],> 100000 nM
same,growth percent,RXF 393 (Renal Cancer); one dose 10 µM,−16.94%
same,GI50,"[6]; Homo sapiens, five-dose",67000 nM
same,growth percent,[6]; one dose 10 µM,47.98%
same,GI50,"SF-539 (CNS Cancer); Homo sapiens, five-dose",26.7 nM
same,growth percent,SF-539 (CNS Cancer); one dose 10 µM,−4.58%
same,GI50,"[7]; Homo sapiens, NCI-H460, 48 h",42 nM
same,GI50,[7]; 48 h,42.3 nM
same,growth percent,"[7]; one dose 10 µM, 48 h",13.26%
same,growth percent,MOLT-4 (Leukemia),21.84%
same,IC50,SNB-75 (CNS Cancer); [9],> 100000 nM
same,growth percent,SNB-75 (CNS Cancer); one dose 10 µM,40.99%
same,GI50,"PC-3 (Prostate Cancer); Homo sapiens, five-dose",36 nM
same,growth percent,PC-3 (Prostate Cancer); one dose 10 µM,23.47%
same,GI50,"HT29 (Colon Cancer); Homo sapiens, HT-29, five-dose",3680 nM
same,growth percent,HT29 (Colon Cancer); one dose 10 µM,41.01%
same,IC50,[8]; [9],5250 nM
same,growth percent,[8]; one dose 10 µM,10.82%
same,GI50,"IGROV1 (Ovarian Cancer); Homo sapiens, IGROV-1, five-dose",5830 nM
same,growth percent,IGROV1 (Ovarian Cancer); one dose 10 µM,50.48%
same,GI50,"SK-MEL-28 (Melanoma); Homo sapiens, five-dose",3620 nM
same,growth percent,SK-MEL-28 (Melanoma); one dose 10 µM,59.08%
same,GI50,"LOX IMVI (Melanoma); Homo sapiens, five-dose",51.1 nM
same,growth percent,LOX IMVI (Melanoma); one dose 10 µM,50.87%
same,GI50,"BT-549 (Breast Cancer); Homo sapiens, BT-549, 48 h",71 nM
same,GI50,BT-549 (Breast Cancer); 48 h,71.2 nM
same,growth percent,"BT-549 (Breast Cancer); one dose 10 µM, 48 h",36.59%
same,IC50,SK-OV-3 (Ovarian Cancer); [9],> 100000 nM
same,growth percent,SK-OV-3 (Ovarian Cancer); one dose 10 µM,12.67%
same,GI50,HL-60 (TB) (Leukemia); 48 h,24.5 nM
same,growth percent,"HL-60 (TB) (Leukemia); HL-60 (TB), one dose 10 µM, 48 h",−36.28%
same,GI50,"HL-60 (TB) (Leukemia); Homo sapiens, HL-60, 48 h",24 nM
same,GI50,"HCC-2998 (Colon Cancer); Homo sapiens, five-dose",3000 nM
same,growth percent,HCC-2998 (Colon Cancer); one dose 10 µM,67.70%
